The values that follow come from patent publication US20260256925A1, “INDAZOLE DERIVATIVES AS ESTROGEN RECEPTOR DEGRADERS” (REGENTS OF THE UNIVERSITY OF MICHIGAN, priority 2022, published 2026).

For one test, the target named is T1, ER (Homo sapiens, UniProt P03372).
T1 construct: endogenous in cells; probably T47D or MCF-7
T1 sequence (P03372 1-595): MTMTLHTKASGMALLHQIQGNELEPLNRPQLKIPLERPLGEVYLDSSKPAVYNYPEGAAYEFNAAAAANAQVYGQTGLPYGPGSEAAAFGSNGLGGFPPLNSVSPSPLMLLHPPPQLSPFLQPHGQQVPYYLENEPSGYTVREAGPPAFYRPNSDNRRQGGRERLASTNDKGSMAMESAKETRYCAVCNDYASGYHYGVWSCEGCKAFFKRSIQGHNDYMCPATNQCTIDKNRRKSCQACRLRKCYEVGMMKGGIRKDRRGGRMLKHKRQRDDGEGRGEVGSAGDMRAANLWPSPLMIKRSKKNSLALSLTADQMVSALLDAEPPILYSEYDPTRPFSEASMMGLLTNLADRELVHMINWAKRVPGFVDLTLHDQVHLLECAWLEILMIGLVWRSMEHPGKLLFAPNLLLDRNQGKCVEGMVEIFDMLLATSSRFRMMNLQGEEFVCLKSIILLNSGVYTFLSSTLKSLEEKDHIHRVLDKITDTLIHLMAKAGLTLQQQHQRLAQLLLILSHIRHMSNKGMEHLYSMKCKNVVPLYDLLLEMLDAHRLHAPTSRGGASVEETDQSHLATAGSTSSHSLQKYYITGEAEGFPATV
Kind of test: In-cell western blot analysis, relative ER percentage (compounds B1-B126). To be noted: ER degradation, 16 hours, read-out: ICW DC50. Type of test: cell-based. As to the method: In-cell western blot analysis. Cells are seeded in multi-well plates (e.g., at 40,000 or 10,000 cells/well). Diluted compounds at certain concentration are added (final 0.5% DMSO) and cells are incubated for a certain period of time (e.g., 16 hours). Formaldehyde (e.g., PBS: FA=9:1) is added and followed by washing with PBS. The cells are blocked with Licor blocking buffer (Li-Cor). The relative ER percentage in treated cells are obtained by comparing the values of treated wells to those in untreated and DMSO-treated wells as 100%.
In-cell western blot analysis. a. seed cells in black-sided/clear bottom 96- or 384-well plates at 40,000 or 10,000 cells/well, overnight; b. add diluted compounds (final 0.5% DMSO), 16 hours. […] RT 2h, gentle shaking. Negative control: cells plus secondary antibodies (no primary antibodies); e. wash×4 with PBS +0.05-0.1% Tween 20, gentel shaking; f. anti-rabbit-680 and anti-mouse-800 (both 1:1000 in LiCor block+0.05% Tween20, RT 1h, gentle shaking, no light. LI-COR: 0.2% to reduce background; g. wash×4 with PBS+0.05% Tween 20, gental shaking; h. add 100 μL or 25 μL of PBS to each well and read on CLX plate reader. The relative ER percentage in treated cells were obtained by comparing the values of treated wells to those in untreated and DMSO-treated wells as 100%.

A short description of test [1]: Cell growth assay, WST-8 (compounds B1-B126). Type of test: cell-based. To be noted: 96 h; T47D cell line, WST-8, 4 days; read-out: Cell growth inhibition in T47D cell line IC50. As to the method:
Cell Growth Assay. The cells are seeded at certain concentration (e.g., at 1500/well) in multi-well plates overnight. Cells are subsequently treated with the compounds. A certain period of time (e.g., 4 days) after the compound treatment, 10% WST-8 reagent is added to the culture medium and incubate under certain condiction (e.g., in a CO2 incubator at 37° C. for 2.5 hours). The absorbance is measured on each sample using a microplate reader at certain wavelength (e.g., 450 nm). The relative absorbance is calculated against the vehicle control from three individually repeats.
Cell Growth Assay. The cells were seeded at 1500/well in 96 well plates overnight. One day after the seeding, they were treated with indicated doses of compounds respectively. 4 days after the compound treatment, 10% WST-8 reagent was added to the culture medium and incubate in a CO2 incubator at 37° C. for 2.5 hours. Before reading, the plate was mixed gently on an orbital shaker for one minute to ensure homogeneous distribution of color. The absorbance was measured of each sample using a microplate reader at a wavelength of 450 nm. The relative absorbance was calculated against the vehicle control from three individually repeats.
A general note: Formazan colour is commonly taken as a measure of viable cells.

As for `C[C@@H]1Cc2c(ccc3[nH]ncc23)[C@@H](c2c(F)cc(N3CCN(CC(=O)N4CCN5c6cc7c(cc6OC[C@@H]5C4)C(=O)N(C4CCC(=O)NC4=O)C7)CC3)cc2F)N1CC(F)F` (stereo partly drawn) [Compound B32, 3-((S)-3-(2-(4-(4-((6S,8R)-7-(2,2-difluoroethyl)-8-methyl-6,7,8,9-tetrahydro-3H-pyrazolo[4,3-f]isoquinolin-6-yl)-3,5-difluorophenyl)pipcrazin-1-yl)acetyl)-8-oxo-1,2,3,4,4a,5,8,10-octahydro-9H-pyrazino[1′,2′:4,5][1,4]oxazino[2,3-f]isoindol-9-yl)piperidine-2,6-dione], the DC50 at ER was under 10 nM. Also, the IC50 in test [1] is under 1 nM.
Consider `C[C@@H]1Cc2c(ccc3[nH]ncc23)[C@@H](c2c(F)cc(N3CC4(CCN(CC(=O)N5CCN6c7cc8c(cc7OC[C@@H]6C5)C(=O)N(C5CCC(=O)NC5=O)C8)CC4)C3)cc2F)N1CC(F)F` (stereo partly drawn) [Compound B33, 3-((S)-3-(2-(2-(4-((6S,8R)-7-(2,2-difluoroethyl)-8-methyl-6,7,8,9-tetrahydro-3H-pyrazolo[4,3-f]isoquinolin-6-yl)-3,5-difluorophenyl)-2,7-diazaspiro[3.5]nonan-7-yl)acetyl)-8-oxo-1,2,3,4,4a,5,8,10-octahydro-9H-pyrazino[1′,2′:4,5][1,4]oxazino[2,3-f]isoindol-9-yl)piperidine-2,6-dione], for which the half-maximal degradation concentration (DC50) on ER is under 10 nM. The IC50 in test [1] was under 1 nM.
For `C[C@@H]1Cc2c(ccc3[nH]ncc23)[C@@H](c2c(F)cc(N3CC4(CN(C(=O)CN5CCN6c7cc8c(cc7OC[C@@H]6C5)C(=O)N(C5CCC(=O)NC5=O)C8)C4)C3)cc2F)N1CC(F)F` (stereo partly drawn) [Compound B34, 3-((S)-3-(2-(6-(4-((6S,8R)-7-(2,2-difluoroethyl)-8-methyl-6,7,8,9-tetrahydro-3H-pyrazolo[4,3-f]isoquinolin-6-yl)-3,5-difluorophenyl)-2,6-diazaspiro[3.3]heptan-2-yl)-2-oxoethyl)-8-oxo-1,2,3,4,4a,5,8,10-octahydro-9H-pyrazino[1′,2′:4,5][1,4]oxazino[2,3-f]isoindol-9-yl)piperidine-2,6-dione], in that order: under 10 nM and under 1 nM.
For `C[C@H]1Cc2c(ccc3[nH]ncc23)[C@H](c2ccc(NC3CN(C(=O)CN4CCN5c6cc7c(cc6OC[C@@H]5C4)C(=O)N(C4CCC(=O)NC4=O)C7)C3)cn2)N1CC(F)(F)F` (stereo partly drawn) [Compound B35, 3-((S)-3-(2-(3-((6-((6R,8S)-8-methyl-7-(2,2,2-trifluoroethyl)-6,7,8,9-tetrahydro-3H-pyrazolo[4,3-f]isoquinolin-6-yl)pyridin-3-yl)amino)azetidin-1-yl)-2-oxoethyl)-8-oxo-1,2,3,4,4a,5,8,10-octahydro-9H-pyrazino[1′,2′:4,5][1,4]oxazino[2,3-f]isoindol-9-yl)piperidine-2,6-dione], in that order: 10 to 100 nM and over 10 nM.
The like results for `C[C@@H]1Cc2c(ccc3[nH]ncc23)[C@@H](c2c(F)cc(N3CC4(CCN(C(=O)CN5CCN6c7cc8c(cc7OC[C@@H]6C5)C(=O)N(C5CCC(=O)NC5=O)C8)C4)C3)cc2F)N1CC(F)F` (stereo partly drawn) [Compound B36, 3-((S)-3-(2-(2-(4-((6S,8R)-7-(2,2-difluoroethyl)-8-methyl-6,7,8,9-tetrahydro-3H-pyrazolo[4,3-f]isoquinolin-6-yl)-3,5-difluorophenyl)-2,6-diazaspiro[3.4]octan-6-yl)-2-oxoethyl)-8-oxo-1,2,3,4,4a,5,8,10-octahydro-9H-pyrazino[1′,2′:4,5][1,4]oxazino[2,3-f]isoindol-9-yl)piperidine-2,6-dione] were, in that order, under 10 nM and under 1 nM.
Consider `C[C@@H]1Cc2c(ccc3[nH]ncc23)[C@@H](c2c(F)cc(N3CCC4(CN(C(=O)CN5CCN6c7cc8c(cc7OC[C@@H]6C5)C(=O)N(C5CCC(=O)NC5=O)C8)C4)C3)cc2F)N1CC(F)F` (stereo partly drawn) [Compound B37, 3-((S)-3-(2-(6-(4-((6S,8R)-7-(2,2-difluoroethyl)-8-methyl-6,7,8,9-tetrahydro-3H-pyrazolo[4,3-f]isoquinolin-6-yl)-3,5-difluorophenyl)-2,6-diazaspiro[3.4]octan-2-yl)-2-oxoethyl)-8-oxo-1,2,3,4,4a,5,8,10-octahydro-9H-pyrazino[1′,2′:4,5][1,4]oxazino[2,3-f]isoindol-9-yl)piperidine-2,6-dione], for which the DC50 on ER is under 10 nM. Further, the 50% inhibitory concentration (IC50) in test [1] is under 1 nM.
The like results for `C[C@@H]1Cc2c(ccc3[nH]ncc23)[C@@H](c2c(F)cc(N3CC4(CN(CC(=O)N5CCN6c7cc8c(cc7OC[C@@H]6C5)C(=O)N(C5CCC(=O)NC5=O)C8)C4)C3)cc2F)N1CC(F)F` (stereo partly drawn) [Compound B38, 3-((S)-3-(2-(6-(4-((6S,8R)-7-(2,2-difluorocthyl)-8-mcthyl-6,7,8,9-tetrahydro-3H-pyrazolo[4,3-f]isoquinolin-6-yl)-3,5-difluorophenyl)-2,6-diazaspiro[3.3]heptan-2-yl)acetyl)-8-oxo-1,2,3,4,4a,5,8,10-octahydro-9H-pyrazino[1′,2′:4,5][1,4]oxazino[2,3-f]isoindol-9-yl)piperidine-2,6-dione] were, in that order, under 10 nM and under 1 nM.
The like results for `C[C@@H]1Cc2c(ccc3[nH]ncc23)[C@@H](c2c(F)cc(NC3CC4(C3)CN(C(=O)CN3CCN5c6cc7c(cc6OC[C@@H]5C3)C(=O)N(C3CCC(=O)NC3=O)C7)C4)cc2F)N1CC(F)F` (stereo partly drawn) [Compound B39, 3-((S)-3-(2-(6-((4-((6S,8R)-7-(2,2-difluoroethyl)-8-methyl-6,7,8,9-tetrahydro-3H-pyrazolo[4,3-f]isoquinolin-6-yl)-3,5-difluorophenyl)amino)-2-azaspiro[3.3]heptan-2-yl)-2-oxoethyl)-8-oxo-1,2,3,4,4a,5,8,10-octahydro-9H-pyrazino[1′,2′:4,5][1,4]oxazino[2,3-f]isoindol-9-yl)piperidine-2,6-dione] were, in that order, under 10 nM and under 1 nM.
The like results for `C[C@@H]1Cc2c(ccc3[nH]ncc23)[C@@H](c2c(F)cc(N3CC4(CCN(CC(=O)N5CCN6c7cc8c(cc7OC[C@@H]6C5)C(=O)N(C5CCC(=O)NC5=O)C8)C4)C3)cc2F)N1CC(F)F` (stereo partly drawn) [Compound B40, 3-((S)-3-(2-(2-(4-((6S,8R)-7-(2,2-difluoroethyl)-8-methyl-6,7,8,9-tetrahydro-3H-pyrazolo[4,3-f]isoquinolin-6-yl)-3,5-difluorophenyl)-2,6-diazaspiro[3.4]octan-6-yl)acetyl)-8-oxo-1,2,3,4,4a,5,8,10-octahydro-9H-pyrazino[1′,2′:4,5][1,4]oxazino[2,3-f]isoindol-9-yl)piperidine-2,6-dione] were, in that order, under 10 nM and under 1 nM.
Regarding `C[C@@H]1Cc2c(ccc3[nH]ncc23)[C@@H](c2c(F)cc(N3CCC4(CN(CC(=O)N5CCN6c7cc8c(cc7OC[C@@H]6C5)C(=O)N(C5CCC(=O)NC5=O)C8)C4)C3)cc2F)N1CC(F)F` (stereo partly drawn) [Compound B41, 3-((S)-3-(2-(6-(4-((6S,8R)-7-(2,2-difluoroethyl)-8-methyl-6,7,8,9-tetrahydro-3H-pyrazolo[4,3-f]isoquinolin-6-yl)-3,5-difluorophenyl)-2,6-diazaspiro[3.4]octan-2-yl)acetyl)-8-oxo-1,2,3,4,4a,5,8,10-octahydro-9H-pyrazino[1′,2′:4,5][1,4]oxazino[2,3-f]isoindol-9-yl)piperidine-2,6-dione], the DC50 at ER was under 10 nM. Moreover, the IC50 in test [1] is under 1 nM.

One may read the DC50 as the midpoint of the concentration-degradation curve. What is called IC50 is the point on the concentration scale where inhibition reaches its midpoint.
